Experiments:
normal mice [1] = assay: Y maze test in normal mice; format: in vivo, mouse; details: 30 mg/kg i.p., 60 minutes after
Description: A vehicle (10% DMSO solution; dissolved in saline; n=11) or PA-915 (30 mg/kg; n=10) was intraperitoneally administered (0.1 mL/10 g) to male C57BL/6J mice (8 to 12 weeks old). After a lapse of 60 minutes after administration, the mice were allowed to explore the Y maze for 5 minutes in a laboratory (illuminance: 20 lx). The data was indicated by mean±standard error.

normal mice [2] = assay: Novel object recognition test in normal mice; format: in vivo, mouse; details: 30 mg/kg i.p., 60 minutes later
Description: Male C57BL/6J mice (8 weeks old) were acclimatized to the test box by exploration at 10 min/day for 3 days. On the fourth day, two objects differing in shape were placed in the test box, and the mice were allowed to freely explore the test box for 10 minutes (training trial). 23 hours after the completion of exploration, a vehicle (10% DMSO solution; dissolved in saline; n=10) or PA-915 (30 mg/kg; n=10) was intraperitoneally administered thereto (0.1 mL/10 g). 60 minutes later, one of the two objects was changed to a novel object, and the mice were allowed to explore the test box for 5 minutes (retention trial). Novel and known object exploration times were measured. The results are shown in FIGS. 36B and 36C (B: discrimination index, C: novel object exploration ratio). The data was indicated by mean±standard error.

## O=C(NCCc1c[nH]cn1)C1CC(=O)N(c2n[nH]c3c(Cl)cccc23)C1 (centres unmarked) [PA-915, N-[2-(1H-imidazol-4-yl)ethyl]-1-(7-chloro-1H-indazol-3-yl)-5-oxo-3-pyrrolidinecarboxamide]
Normal mice [1]
  influence on cognitive function (Y maze test): had no influence on the cognitive function
Normal mice [2]
  influence on cognitive function (novel object recognition test): had no influence on the cognitive function
